According to the supplement of paper PMC10702517:
± gives the standard deviation.

Experiments:
[1] = chemical recovery into PDMS from spiked human plasma; higher = better extraction; conditions: pooled human plasma, extraction method: PES with PDMS
[2] = chemical recovery by SPE of plasma after PDMS sampling; higher = better extraction; conditions: pooled human plasma, extraction method: HLB SPE of plasma after PES
[3] = chemical recovery from spiked human plasma; higher = better extraction; conditions: pooled human plasma
[4] = extraction method: SPE only (HLB 96-well), PES comparison experiment
[5] = extraction method: solvent precipitation (ACN + hexane)
[6] = extraction method: PES+SPE (3 d PDMS equilibration then HLB SPE)
[7] = extraction method: SPE only (HLB 96-well)
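For chemical recovery by SPE of plasma after PDMS sampling in this document: over 400 spiked chemicals quantified by LC-HRMS or GC-HRMS via internal standard calibration, recovery relative to spike mix added to unspiked plasma extract to correct matrix effects.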

| chemical recovery into PDMS ([1]; equilibration time (d): 1) [%] | chemical recovery into PDMS ([1]; equilibration time (d): 3) [%] | chemical recovery into PDMS ([1]; equilibration time (d): 6) [%] | chemical recovery by SPE of plasma ([2]; equilibration time (d): 1) [%] | chemical recovery by SPE of plasma ([2]; equilibration time (d): 3) [%] | chemical recovery by SPE of plasma ([2]; equilibration time (d): 6) [%] | chemical recovery [3, 4] [%] | chemical recovery [3, 6] [%] | chemical recovery [3, 7] [%] | Compound | chemical recovery [3, 5] [%] |
| --- | --- | --- | --- | --- | --- | --- | --- | --- | --- | --- |
| 39.6 ± 3.2 | 42.2 ± 4.2 | 43.2 ± 2.2 | 3.65 ± 3.2 | 2.44 ± 2.1 | 0.703 ± 1.2 | 43.4 ± 6.2 |  |  | CCCN(CCOc1c(Cl)cc(Cl)cc1Cl)C(=O)NC=O |  |
| 15.9 ± 6.2 | 9.35 ± 5.2 | 13.5 ± 8.6 | 1.42 ± 1.2 |  |  | 24.5 ± 5.8 |  |  | C#C[C@]1(OC(C)=O)CC[C@H]2[C@@H]3CCC4=CC(=NO)CC[C@@H]4[C@H]3CC[C@@]21CC (mixture of isomers) [Norgestimate] |  |
| 0.0493 ± 0.043 | 0.0293 ± 0.027 | 0.0825 ± 0.0051 | 17.2 ± 0.9 | 12.8 ± 1.7 | 10.5 ± 1.8 | 39.6 ± 10 | 7.76 ± 0.64 | 42.6 ± 2.9 | CC(=O)N1CCN(c2ccc(OC[C@H]3CO[C@](Cn4ccnc4)(c4ccc(Cl)cc4Cl)O3)cc2)CC1 (racemic) [Ketoconazole] |  |
| 3.18 ± 2.2 | 2.57 ± 3 | 3.27 ± 3.2 | 4.06 ± 4.7 | 4.29 ± 3.7 | 8.78 ± 4.2 | 13.6 ± 8.1 |  | 7.04 ± 5.9 | CN1CCN(C)C1=O [1,3-Dimethyl-2-imidazolidinone] |  |
| 70.3 ± 20 | 70.6 ± 5.2 | 78.1 ± 11 |  | 2.49 ± 2.2 |  | 17.3 ± 3 | 45.1 ± 7.6 | 12.2 ± 3 | c1ccc(-c2cccc3ccccc23)cc1 [1-Phenylnaphthalene] |  |
| 4.24 ± 0.36 | 6.44 ± 1 | 7.25 ± 1.5 | 47.4 ± 3.6 | 46.6 ± 3.2 | 39.9 ± 2.1 | 53.9 ± 5.8 | 51.7 ± 3.9 | 48.2 ± 2.7 | c1ccc2[nH]nnc2c1 [1H-Benzotriazole] | 62.5 ± 4.5 |
| 27.1 ± 0.46 | 29.2 ± 2.2 | 30.7 ± 0.94 | 1.2 ± 0.1 | 1.41 ± 0.23 | 0.805 ± 0.046 | 40.1 ± 5.6 | 41.7 ± 6.4 | 39.6 ± 2.1 | c1ccc2sc(N3CCOCC3)nc2c1 [2(4-morpholinyl)benzothiazole] | 67.9 ± 3.3 |
| 0.707 ± 0.49 | 1.17 ± 0.15 | 0.677 ± 0.17 | 2.44 ± 4 |  | 1.13 ± 0.92 |  |  |  | CC1(C)CC(=O)CC(C)(C)N1 [2,2,6,6-Tetramethyl-4 piperidone] |  |
| 0.268 ± 0.04 | 0.296 ± 0.12 | 0.344 ± 0.065 | 47.5 ± 9.1 | 46.9 ± 8.3 | 47 ± 2.5 | 57 ± 6.3 |  | 47.3 ± 5.1 | O=C(O)c1ccc(Cl)cc1Cl [2,4-Dichlorobenzoic acid] | 67 ± 4.5 |
| 36.6 ± 1.5 | 40.9 ± 4 | 43.5 ± 3.3 | 0.712 ± 0.79 | 0.276 ± 0.48 |  | 23.9 ± 4.7 |  |  | O=Cc1ccccc1Nc1ccccc1Cl [2-(2-(Chlorophenyl)amino)benzaldehyde] |  |
| 6.56 ± 0.99 | 9.84 ± 3 | 5.91 ± 1.3 | 0.45 ± 0.78 | 1.14 ± 0.62 | 0.431 ± 0.75 |  |  |  | Nc1ccccc1Br [2-Bromoaniline] |  |
|  | 67.8 ± 4.7 | 62.3 ± 4.6 | 11.4 ± 8 | 12 ± 2.1 | 11.5 ± 4.2 |  |  |  | ClC=C(c1ccc(Cl)cc1)c1ccc(Cl)cc1 [4,4-DDMU] |  |
| 20.3 ± 6.3 | 23.2 ± 9.8 | 17.8 ± 2.9 |  |  |  | 2.88 ± 2 |  |  | CC1C(C)(C)C2=C(C(=O)CCC2)C1(C)C (configuration not stated) [Cashmeran] |  |
|  |  | 36.1 ± 0.56 |  |  |  | 36.1 ± 7.8 |  | 37 ± 4.8 | CC=CC(=O)N(CC)c1ccccc1C [Crotamiton] | 56.3 ± 3.9 |
| 25.7 ± 3.8 | 3.03 ± 5.2 | 5.33 ± 4.6 |  |  |  |  |  | 27.3 ± 3.7 | CCCCCCCCn1sc(Cl)c(Cl)c1=O [DCOIT] |  |
| 47.1 ± 4.2 | 50.6 ± 5.3 | 48 ± 3.2 |  |  |  | 31.5 ± 6 |  |  | CC(C)OC(=O)C(C)(C)Oc1ccc(C(=O)c2ccc(Cl)cc2)cc1 [Fenofibrate] |  |

| Compound | chemical recovery into PDMS ([1]; equilibration time (d): 1) [%] | chemical recovery into PDMS ([1]; equilibration time (d): 3) [%] | chemical recovery into PDMS ([1]; equilibration time (d): 6) [%] | chemical recovery by SPE of plasma ([2]; equilibration time (d): 1) [%] | chemical recovery by SPE of plasma ([2]; equilibration time (d): 3) [%] | chemical recovery by SPE of plasma ([2]; equilibration time (d): 6) [%] | chemical recovery [3, 4] [%] | chemical recovery [3, 6] [%] | chemical recovery [3, 7] [%] | chemical recovery [3, 5] [%] |
| --- | --- | --- | --- | --- | --- | --- | --- | --- | --- | --- |
| Fc1ccc([C@]2(Cn3cncn3)O[C@H]2c2ccccc2Cl)cc1 (racemic) [Epoxiconazole] | 43.7 ± 1.7 | 48.1 ± 4.1 | 46.5 ± 5.9 | 0.968 ± 0.044 | 0.628 ± 0.21 | 0.285 ± 0.018 | 47.4 ± 6.8 |  |  | 73.6 ± 3 |
| Nc1cccc2ccccc12 [1-Naphthylamine] |  | 0.33 ± 0.13 | 0.338 ± 0.048 | 11.2 ± 0.88 | 12.3 ± 2.6 | 6.22 ± 5.4 | 22 ± 3 | 4.07 ± 2.1 | 16.7 ± 8.8 |  |
| C[C@]12CCC(=O)C=C1CC[C@@H]1[C@@H]2CC[C@@]2(C)[C@H]1CC[C@]2(C)O [17alpha-Methyltestosterone] | 34.6 ± 2.1 | 36.4 ± 2.9 | 37.6 ± 0.76 | 7.99 ± 6.9 | 12.4 ± 1.8 | 7.08 ± 1.2 |  |  |  |  |
| O=S(=O)(c1ccc(Cl)cc1)c1ccc(Cl)cc1 [Bis(4-chlorophenyl)sulfone] | 41.4 ± 2.9 |  | 39.6 ± 14 |  |  |  |  |  | 4.65 ± 1.5 |  |
| CC(=O)c1cc(C(C)(C)C)cc2c1CCC2(C)C [Celestolide] | 33.2 ± 0.97 | 37.6 ± 3.8 | 34.7 ± 3.6 |  |  |  |  |  | 1.5 ± 0.73 | 76.6 ± 27 |
| O=P1(N(CCCl)CCCl)NCCCO1 (configuration not stated) [Cyclophosphamide] | 1.55 ± 2.7 | 2.5 ± 4.3 | 6.21 ± 5.4 |  |  |  | 55 ± 4.7 | 49.6 ± 4.1 | 41 ± 4 | 70.9 ± 3.3 |
| CC(C1CC1)C(O)(Cn1cncn1)c1ccc(Cl)cc1 (configuration not stated) [Cyproconazole] | 37.7 ± 1.8 | 41.6 ± 3.6 | 41 ± 0.84 | 2.91 ± 0.36 | 2.32 ± 0.46 | 1.25 ± 0.088 |  |  |  |  |
| CCCCOP(=O)(O)OCCCC [Di-n-butyl phosphate] | 25.9 ± 1.5 | 31.1 ± 3.2 | 30.9 ± 1.4 |  |  |  |  | 42.2 ± 5 | 33.5 ± 3.3 | 67.8 ± 3.6 |
| CCOP(=S)(OCC)SCSP(=S)(OCC)OCC [Ethion] | 48.1 ± 8.9 | 47.4 ± 4.3 | 46.7 ± 1.1 |  |  |  | 31.7 ± 5.8 |  | 37.2 ± 9.9 |  |
